Experimental data: US4272437A, “Antibacterial agents, and 4-thio azetidinone intermediates” (priority 1979, dated 1981)
In brackets after ≈: the same amount, converted by molar mass. Where two headings read alike, the source gives them in different places.

How the values were obtained:
Pr. mirabilis A-9900 = experiment: MIC, tube dilution, Proteus mirabilis A9900; type: cell-based; conditions: Proteus mirabilis, A9900, Proteus mirabilis A9900; overnight 37° C.; read-out: Minimum Inhibitory Concentration (M.I.C.)
From the text: (§1) Representative compounds of the present invention were subjected to in vitro antibiotic screening against a variety of microorganisms.

E. coli A-15119 = experiment: MIC, tube dilution, Escherichia coli A15119; type: cell-based; conditions: Escherichia coli, A15119, E. coli A15119; overnight 37° C.; read-out: Minimum Inhibitory Concentration (M.I.C.)
From the text: as §1

Ps. aeruginosa A-21213 = experiment: MIC, tube dilution, Pseudomonas aeruginosa A21213; type: cell-based; conditions: overnight 37° C., read-out: Minimum Inhibitory Concentration (M.I.C.)
From the text: as §1

Ps. aeruginosa A-9843A = experiment: MIC, tube dilution, Pseudomonas aeruginosa A9843A; type: cell-based; conditions: Pseudomonas aeruginosa, A9843A, read-out: Minimum Inhibitory Concentration (M.I.C.), Pseudomonas aeruginosa A9843A; overnight 37° C.
From the text: as §1

Proteus rettgeri A21203 = experiment: MIC, tube dilution, Proteus rettgeri A21203; type: cell-based; conditions: Providencia rettgeri, overnight 37° C., read-out: Minimum Inhibitory Concentration (M.I.C.)
From the text: as §1

[1] = system: Staph. aureus (Meth-Res) A-15097; experiment: MIC, tube dilution, Staphylococcus aureus A15097 (Meth-Res); type: cell-based; conditions: Staphylococcus aureus, overnight 37° C.
From the text: as §1

Ent. cloacae A-9659 = experiment: MIC, tube dilution, Enterobacter cloacae A9659; type: cell-based; conditions: Enterobacter cloacae, A9659, Enterobacter cloacae A9659; overnight 37° C.; read-out: Minimum Inhibitory Concentration (M.I.C.)
From the text: as §1

[2] = system: Staph. aureus (Pen-Res) A-9606; experiment: MIC, tube dilution, Staphylococcus aureus A9606 (Pen-Res); type: cell-based; conditions: Staphylococcus aureus, overnight 37° C.
From the text: as §1

[3] = system: Staph. aureus A-9537 and 50% serum; experiment: MIC, tube dilution, Staph. aureus A9537 + 50% serum; type: cell-based, Staphylococcus aureus; conditions: Staphylococcus aureus, overnight 37° C., read-out: Minimum Inhibitory Concentration (M.I.C.)
From the text: as §1

Ent. cloacae A-9656 = experiment: MIC, tube dilution, Enterobacter cloacae A9656; type: cell-based; conditions: overnight 37° C., read-out: Minimum Inhibitory Concentration (M.I.C.)
From the text: as §1

Str. pneumoniae A-9585 = experiment: MIC, tube dilution, Streptococcus pneumoniae A9585; type: cell-based; conditions: Streptococcus pneumoniae, A9585, Str. pneumoniae A9585; overnight 37° C., Nutrient Broth; read-out: Minimum Inhibitory Concentration (M.I.C.)
From the text: as §1

Proteus vulgaris A21559 = experiment: MIC, tube dilution, Proteus vulgaris A21559; type: cell-based; conditions: Proteus vulgaris, A21559, Proteus vulgaris A21559; overnight 37° C.; read-out: Minimum Inhibitory Concentration (M.I.C.)
From the text: as §1

E. coli A-20341-1 = experiment: MIC, tube dilution, Escherichia coli A20341-1; type: cell-based
From the text: as §1

Str. faecalis A-20688 = experiment: MIC, tube dilution, Streptococcus faecalis A20688; type: cell-based; conditions: Enterococcus faecalis, A20688, Str. faecalis A20688; overnight 37° C.; read-out: Minimum Inhibitory Concentration (M.I.C.)
From the text: as §1

[4] = system: Klebsiella species A20468; experiment: MIC, tube dilution, Klebsiella species A20468; type: cell-based; conditions: Klebsiella species (K. pneumoniae) A20468; overnight 37° C.; read-out: Minimum Inhibitory Concentration (M.I.C.)
From the text: as §1

Staph. aureus A-9537 = experiment: MIC, tube dilution, Staphylococcus aureus A9537; type: cell-based; conditions: Staphylococcus aureus, A9537, Staph. aureus A9537; overnight 37° C., Nutrient Broth; read-out: Minimum Inhibitory Concentration (M.I.C.)
From the text: as §1

Ser. marcescens A-20019 = experiment: MIC, tube dilution, Serratia marcescens A20019; type: cell-based; conditions: Serratia marcescens, A20019, Serratia marcescens A20019; overnight 37° C.; read-out: Minimum Inhibitory Concentration (M.I.C.)
From the text: as §1

Pr. morganii A-15153 = experiment: MIC, tube dilution, Proteus morganii A15153; type: cell-based; conditions: Morganella morganii, A15153, Proteus morganii A15153; overnight 37° C.; read-out: Minimum Inhibitory Concentration (M.I.C.)
From the text: as §1

K. pneumoniae A-15130 = experiment: MIC, tube dilution, Klebsiella pneumoniae A15130; type: cell-based; conditions: Klebsiella pneumoniae, A15130, K. pneumoniae A15130; overnight 37° C.; read-out: Minimum Inhibitory Concentration (M.I.C.)
From the text: as §1

Str. pyogenes A-9604 = experiment: MIC, tube dilution, Streptococcus pyogenes A9604; type: cell-based; conditions: Streptococcus pyogenes, A9604, Str. pyogenes A9604; overnight 37° C., Nutrient Broth; read-out: Minimum Inhibitory Concentration (M.I.C.)
From the text: as §1

[5] = A21203, Proteus rettgeri A21203
[6] = Staph. aureus A15097 (Meth-Res), read-out: Minimum Inhibitory Concentration (M.I.C.)
[7] = Staph. aureus A9606 (Pen-Res), read-out: Minimum Inhibitory Concentration (M.I.C.)
[8] = Enterobacter cloacae, A9656, Enterobacter cloacae A9656
[9] = Escherichia coli, A203411, E. coli A20341-1; overnight 37° C.; read-out: Minimum Inhibitory Concentration (M.I.C.)
[10] = Escherichia coli, A203411; E. coli A20341-1; overnight 37° C.; read-out: Minimum Inhibitory Concentration (M.I.C.)

Compound | MIC (Pr. mirabilis A-9900) [µg/mL] | MIC (E. coli A-15119) [µg/mL] | MIC (Ps. aeruginosa A-9843A) [µg/mL] | MIC (Proteus rettgeri A21203; [5]) [µg/mL] | MIC [1, 6] [µg/mL] | MIC (Ent. cloacae A-9659) [µg/mL] | MIC [2, 7] [µg/mL] | MIC [3] [µg/mL] | MIC (Ent. cloacae A-9656; [8]) [µg/mL] | MIC (Str. pneumoniae A-9585) [µg/mL] | MIC (Proteus vulgaris A21559) [µg/mL] | MIC (E. coli A-20341-1; [9]) [µg/mL] | MIC (Str. faecalis A-20688) [µg/mL] | MIC [4] [µg/mL] | MIC (Staph. aureus A-9537) [µg/mL] | MIC (Ser. marcescens A-20019) [µg/mL] | MIC (Pr. morganii A-15153) [µg/mL] | MIC (K. pneumoniae A-15130) [µg/mL] | MIC (Str. pyogenes A-9604) [µg/mL] | MIC (Ps. aeruginosa A-21213; Pseudomonas aeruginosa A21213) [µg/mL] | also measured
N=C(Cc1ccccc1)NCC1=C(C(=O)O)N2C(=O)CC2S1 (stereo not drawn) [Example 107] | 63 (≈ 199 µM) | 63 (≈ 199 µM) | 63 (≈ 199 µM) | 63 (≈ 199 µM) | > 63 | > 63 | 32 (≈ 101 µM) | 16 | 63 (≈ 199 µM) | 0.5 (≈ 1.58 µM) | 63 (≈ 199 µM) | > 63 | > 63 | > 63 | 0.5 (≈ 1.58 µM) | 63 (≈ 199 µM) | 63 (≈ 199 µM) | > 63 | 0.5 (≈ 1.58 µM) | – | MIC (Ps. aeruginosa A-21213; Pseudomonas aeruginosa, A21213, Pseudomonas aeruginosa A21213): 63 µg/mL (≈ 199 µM)
O=C(O)C1=C(Cn2cnnn2)SC2CC(=O)N12 (stereo not drawn) [Example 76, Sodium 2-(1H-Tetrazolemethyl)-penem-3-carboxylate] | 8 | 4 | > 125 | 8 | 8 | 16 | 4 | > 63 | 16 | 0.03 | 8 | – | 125 | > 125 | 1 | 16 | 16 | 63 | 0.5 | > 125 | MIC (E. coli A-20341-1; [10]): > 125 µg/mL
CC1=C(C(=O)O)N2C(=O)[C@@H]([C@H](C)O)[C@H]2S1 (relative stereo) [Example 61, (1'S,5R,6R and 1'R,5S,6S) 6-(1'-Hydroxy-1'-ethyl)-2-methylpenem-3-carboxylic Acid (isomer A)] | 2 (≈ 8.72 µM) | 2 (≈ 8.72 µM) | 63 (≈ 275 µM) | 2 (≈ 8.72 µM) | 2 (≈ 8.72 µM) | 8 (≈ 34.9 µM) | 1 (≈ 4.36 µM) | 4 | 32 (≈ 140 µM) | 0.03 (≈ 0.131 µM) | 4 (≈ 17.4 µM) | 8 (≈ 34.9 µM) | 2 (≈ 8.72 µM) | 63 (≈ 275 µM) | 0.5 (≈ 2.18 µM) | 8 (≈ 34.9 µM) | 8 (≈ 34.9 µM) | 8 (≈ 34.9 µM) | 0.06 (≈ 0.262 µM) | – | –
O=C(O)C1=C(C2CC2)SC2CC(=O)N12 (stereo not drawn) [Example 14, 2-Cyclopropylpenem-3-carboxylic Acid] | 4 (≈ 18.9 µM) | 4 (≈ 18.9 µM) | 125 (≈ 592 µM) | 4 (≈ 18.9 µM) | 2 (≈ 9.47 µM) | 16 (≈ 75.7 µM) | – | 16 | 16 (≈ 75.7 µM) | 0.06 (≈ 0.284 µM) | – | 63 (≈ 298 µM) | 63 (≈ 298 µM) | > 125 | 0.13 (≈ 0.615 µM) | 8 (≈ 37.9 µM) | 16 (≈ 75.7 µM) | 16 (≈ 75.7 µM) | 0.25 (≈ 1.18 µM) | 125 (≈ 592 µM) | –
O=C([O-])C1=C(CO)S[C@@H]2CC(=O)N12.[Na+] [Preparation 20, Sodium 2-Hydroxymethylpenem-3-carboxylate] | 16 | 16 | 125 | – | – | 63 | – | 16 | – | 0.25 | – | – | > 125 | > 125 | 2 | 32 | 32 | 63 | 1 | > 125 | MIC (Proteus rettgeri A21203; Proteus rettgeri A21203): 32 µg/mL; MIC ([1]; read-out: Minimum Inhibitory Concentration (M.I.C.), Staph. aureus A15097 (Meth-Res)): 8 µg/mL; MIC ([2]; read-out: Minimum Inhibitory Concentration (M.I.C.), Staph. aureus A9606 (Pen-Res)): 4 µg/mL; MIC (Ent. cloacae A-9656; Enterobacter cloacae A9656): 32 µg/mL; MIC (E. coli A-20341-1; [10]): 63 µg/mL
